Earlier results as cited in US20060030547A1, “Antineoplastic combinations” (Wyeth, priority 2001, published 2006).

What was measured:
[1] = system: histologically diverse tumor cells; conditions: in vitro, background statement
orthotopic glioma = conditions: nude mice, background statement
[2] = system: human glioblastoma cell line; conditions: in vitro, background statement

With `CO[C@H]1C[C@@H]2CC[C@@H](C)[C@@](O)(O2)C(=O)C(=O)N2CCCC[C@H]2C(=O)O[C@H]([C@H](C)C[C@@H]2CC[C@@H](OC(=O)C(C)(CO)CO)[C@H](OC)C2)CC(=O)[C@H](C)/C=C(\C)[C@@H](O)[C@@H](OC)C(=O)[C@H](C)C[C@H](C)/C=C/C=C/C=C/1C` [CCI-779, Rapamycin 42-ester with 3-hydroxy-2-(hydroxymethyl)-2-methylpropionic acid] as the compound, how does the cell cycle effect [1] read?
The cell cycle effect was “arrested cells in the G1 phase of the cell cycle”.

And the “activity in orthotopic glioma model” value (orthotopic glioma)?
Its value is “active”.

What about the “suppression of growth factor (platelet-derived)-induced stimulation” value [2] of the same compound?
Its value is “markedly suppressed”.
